The text below walks through data of patent US20050148523A1, “Method of treating HIV infection in atazanavir-resistant patients using a combination of atazanavir and another protease inhibitor” (priority 2003, published 2005).

The test system of assay [1] is clinical isolates containing an I50L substitution (and their baseline isolates). The experiment in a line: PhenoSense phenotypic susceptibility of clinical isolates from ATV-treated patients who developed I50L. The format is cell-based, HIV-1. The following applies: for Subceptibility, Fold Change in EC50 relative to reference strain: Subject 169, Week 114; for median increase in susceptibility from baseline: on emergence of I50L, n=4 to 15; for percentage of I50L isolates with susceptibility (FC) 0.4-fold or lower: relative to the reference strain. From the text:
Study Population. Viral samples (baseline and on-treatment, where available) were obtained from patients who experienced virologic failure while enrolled in studies AI424-007/041 [12] (ATV+d4T and ddI), AI424-008/044 [13, 14] (ATV+d4T and 3TC) and AI424-034 [9] (ATV or EFV in combination with ZDV and 3TC). […] In general, virologic failure specimens were selected for further resistance evaluation only if they contained >1,000 copies/mL HIV-1 RNA and there was no indication that the specimen came from a patient at a time of transient non-adherence to study drug(s). […] For non-responders, samples from week 16 (or 24) were tested. Drug adherence was determined from pill counts of returned study medications at each scheduled visit.
(§1) Drug Susceptibility Assays. Clinical isolates were subjected to phenotypic (PhenoSense™) and genotypic (GeneSeq™) analysis by Virologic, Inc. as described elsewhere.

In assay [2] the test system is clinical isolates containing an I50V. Description: PhenoSense phenotypic susceptibility of clinical isolates containing I50V. Type of assay: cell-based, HIV-1.
Excerpt: as §1
Because an I50V substitution is a signature mutation sometimes associated with APV resistance, the cross-resistance relationship between ATV and APV was further examined.

Assay [3] concerns clinical isolates containing a D30N substitution. Description: PhenoSense phenotypic susceptibility of clinical isolates containing D30N. Type of assay: cell-based, HIV-1. The following applies: 75 D30N containing isolates, FIG. 3. How it is done: as §1
Comparative Studies of I50L and D30N Containing Viruses. […] Comparative studies were performed on the 18 phenotyped viruses containing an I50L and 75 clinical isolates containing a D30N substitution without evidence of cross-resistance (FC≧2.5) to other PIs.

The test system of assay [4] is recombinant HIV-1 viruses (NL4-3, RF, LAI) in MT-2 cells. The experiment in a line: MT-2 cell susceptibility assay of recombinant viruses. Type of assay: cell-based. The following applies: all three viral strains, I50L or I50L/A71V introduced by site-directed mutagenesis. How it is done: Cells and Viruses. MT-2 cells, HIV-1 RF, HIV1-LAI, and the HIV-1 NL4-3 proviral clones were obtained through the AIDS Research and Reference Reagent Program, National Institutes of Health. MT-2 cells were cultured in RPMI 1640 medium supplemented with 10% fetal bovine serum, 2 mM L-glutamine, and 10 mM Hepes buffer. HIV-1 viruses were generated by transient transfection of the proviral DNA into Human Embryonic Kidney 293 cells using Lipofectamine reagents (Gibco BRL). The viruses were harvested 72 hr post-transfection, amplified in MT-2 cells, and titered in the same cells using a virus yield assay.
Recombinant HIV-1 Variants and Chimeric NL4-3 Proviral Clones. HIV-1 strains with defined substitutions in the protease gene were generated by QuikChange® site-directed mutagenesis as recommended by the manufacturer (Stratagene). Recombinant NL4-3 and LAI proviral clones containing the wild-type and mutant protease genes from RF and clinical isolates were constructed by replacing the SseI/ApaI fragment of pNL4-3 with the appropriate SseI/ApaI protease fragments.
Recombinant viruses (generated separately from those made for PhenoSense assays) were tested in an MT-2 cell susceptibility assay at Bristol Myers Squibb. MT-2 cells were infected with recombinant viruses at a multiplicity of infection (MOI) of 0.005 50% tissue culture infective doses (TCID50)/cell followed by incubation in the presence or absence of serially diluted protease inhibitors for 4 to 7 days. Virus yields were quantified using a RT assay as previously described. The results from at least four independent experiments were used to calculate the EC50.

The test system of assay [5] is clinical isolates from patients on NFV regimens. The following applies: isolates containing D30N as the only primary PI mutation; cited from earlier work.
Assay [6] concerns HIV-1 variants containing I50V. The conditions noted are these: in vitro; cited from earlier work.

Molecules are shown by their SMILES.

Regarding `CC(C)CN(C[C@@H](O)[C@H](Cc1ccccc1)NC(=O)O[C@H]1CCOC1)S(=O)(=O)c1ccc(N)cc1` [APV, amprenavir], in assay [1] (I50L containing clinical isolates), the cross-resistance result is “none of the I50L containing clinical isolates showed evidence of APV resistance”. Also, the “Susceptibility, Fold Change in EC50 relative to reference strain” value worked out at 0.3 Fold Change in assay [1] (Isolate with I50L 1); 0.6 Fold Change in assay [1] (Isolate with I50L 2); 0.5 Fold Change in assay [1] (Isolate with I50L 3); 0.4 Fold Change in assay [1] (Isolate with I50L 4); 0.6 Fold Change in assay [1] (Isolate with I50L 5); 0.4 Fold Change in assay [1] (Isolate with I50L 6). The “Susceptibility, Fold Change in EC50 relative to reference strain” value in assay [1] (Isolate with I50L 7) was 0.6 Fold Change; in assay [1] (Isolate with I50L 8), 0.8 Fold Change; in assay [1] (Isolate with I50L 9) it was 0.6 Fold Change; in assay [1] (Isolate with I50L 10) it was 0.3 Fold Change; in assay [1] (Isolate with I50L 11), 0.4 Fold Change; in assay [1] (Isolate with I50L 12), 0.7 Fold Change. Moreover, the “Susceptibility, Fold Change in EC50 relative to reference strain” value in assay [1] (Isolate with I50L 13) turned out to be 0.7 Fold Change; in assay [1] (Isolate with I50L 14) it was 0.8 Fold Change; in assay [1] (Isolate with I50L 15), 0.9 Fold Change; in assay [1] (Isolate with I50L 16) it was 0.4 Fold Change; in assay [1] (Subject 076, Week 80) it was 0.6 Fold Change; in assay [1] (Subject 076, Week 92), 0.9 Fold Change. Moreover, the “Susceptibility, Fold Change in EC50 relative to reference strain” value in assay [1] (Subject 100, Week 1.7) amounted to 1.5 Fold Change; in assay [1] (Subject 169, Week 0.1), 0.6 Fold Change; in assay [1] (Subject 169, Week 90), 0.7 Fold Change; in assay [1] (Subject 169, Week 102), 0.6 Fold Change; in assay [1] (Subject 362, Week 0.1), 1.0 Fold Change; in assay [1] (Subject 362, Week 108), 1.1 Fold Change. Further, the “Susceptibility, Fold Change in EC50 relative to reference strain” value is on record as 3.5 Fold Change in assay [2] (Isolate with I50V 1); 4.2 Fold Change in assay [2] (Isolate with I50V 2); 8.0 Fold Change in assay [2] (Isolate with I50V 3); 9.4 Fold Change in assay [2] (Isolate with I50V 4); 11 Fold Change in assay [2] (Isolate with I50V 5); 11 Fold Change in assay [2] (Isolate with I50V 6). Further, the figures for the “Susceptibility, Fold Change in EC50 relative to reference strain” value in assay [2] (Isolate with I50V 7) and in assay [2] (Isolate with I50V 8) were 12 Fold Change and 14 Fold Change, respectively. Also, the “Subceptibility, Fold Change in EC50 relative to reference strain” value in assay [1] was determined as 1.2 Fold Change. Besides, the “percentage of baseline isolates exhibiting a FC≦0.4” value in assay [1] worked out at 21%. In assay [1], the “median increase in susceptibility from baseline” value (from here on “median increase”) was determined as 1.5 fold. For the same compound, in assay [1], the “percentage of I50L isolates with susceptibility (FC) 0.4-fold or lower” value (shortened to “percentage … (FC) 0.4-fold or lower”) is given as 39%. The “median FC” value in assay [3] was found to be 0.6. Also, in assay [4], the change in susceptibility entry is “enhanced susceptibility”. For the same compound, the susceptibility result in assay [5] is “remained susceptible”.
Consider `Cc1cccc(C)c1OCC(=O)N[C@@H](Cc1ccccc1)[C@@H](O)C[C@H](Cc1ccccc1)NC(=O)[C@H](C(C)C)N1CCCNC1=O` [LPV, lopinavir], for which the “Susceptibility, Fold Change in EC50 relative to reference strain” value in assay [1] (Subject 076, Week 80) is given as 0.6 Fold Change. Besides, the “Susceptibility, Fold Change in EC50 relative to reference strain” value in assay [1] (Subject 076, Week 92) is 0.5 Fold Change. In assay [1], the “percentage of baseline isolates exhibiting a FC≦0.4” value is 0%, the “median increase” value turned out to be 3.2 fold, the “percentage … (FC) 0.4-fold or lower” value came to 100% and the “median FC” value is given as at most 0.4. In addition, the change in susceptibility result in assay [4] is on record as “enhanced susceptibility”. Besides, in assay [6], the “effect of I50V on susceptibility” value was “reduced susceptibility”.
On to `CC(C)c1nc(CN(C)C(=O)N[C@H](C(=O)N[C@@H](Cc2ccccc2)C[C@H](O)[C@H](Cc2ccccc2)NC(=O)OCc2cncs2)C(C)C)cs1` [RTV, ritonavir], for which the “Susceptibility, Fold Change in EC50 relative to reference strain” value in assay [1] (Subject 076, Week 80) is on record as 0.3 Fold Change; in assay [1] (Subject 076, Week 92), 0.3 Fold Change; in assay [1] (Subject 100, Week 1.7), 2.2 Fold Change; in assay [1] (Subject 169, Week 0.1), 1.5 Fold Change; in assay [1] (Subject 169, Week 90), 0.3 Fold Change; in assay [1] (Subject 169, Week 102) it was 0.3 Fold Change. The “Susceptibility, Fold Change in EC50 relative to reference strain” value is 1.1 Fold Change in assay [1] (Subject 362, Week 0.1) and 0.4 Fold Change in assay [1] (Subject 362, Week 108). Further, in assay [1], the “Subceptibility, Fold Change in EC50 relative to reference strain” value is recorded as 0.4 Fold Change. Besides, the “percentage of baseline isolates exhibiting a FC≦0.4” value in assay [1] came out at 10%. The “median increase” value in assay [1] turned out to be 4.1 fold. For the same compound, in assay [1], the “percentage … (FC) 0.4-fold or lower” value was found to be 83%. In addition, the “median FC” value in assay [1] is reported as at most 0.4. In assay [4], the change in susceptibility result is given as “enhanced susceptibility”. In addition, the susceptibility result in assay [5] is “remained susceptible”. In assay [6], the “effect of I50V on susceptibility” value is reported as “reduced susceptibility”.
As to `CC(C)(C)NC(=O)[C@@H]1C[C@@H]2CCCC[C@@H]2CN1C[C@@H](O)[C@H](Cc1ccccc1)NC(=O)[C@H](CC(N)=O)NC(=O)c1ccc2ccccc2n1` [SQV, saquinavir], the “Susceptibility, Fold Change in EC50 relative to reference strain” value came to 0.3 Fold Change in assay [1] (Subject 076, Week 80); 0.5 Fold Change in assay [1] (Subject 076, Week 92); 1.3 Fold Change in assay [1] (Subject 100, Week 1.7); 0.8 Fold Change in assay [1] (Subject 169, Week 0.1); 0.5 Fold Change in assay [1] (Subject 169, Week 90); 0.4 Fold Change in assay [1] (Subject 169, Week 102). The “Susceptibility, Fold Change in EC50 relative to reference strain” value in assay [1] (Subject 362, Week 0.1) came out at 1.0 Fold Change; in assay [1] (Subject 362, Week 108) it was 0.5 Fold Change. Besides, in assay [1], the “Subceptibility, Fold Change in EC50 relative to reference strain” value was found to be 0.5 Fold Change. The “percentage of baseline isolates exhibiting a FC≦0.4” value in assay [1] is listed as 10%. In assay [1], the “median increase” value is 2.0 fold. Also, the “percentage … (FC) 0.4-fold or lower” value in assay [1] came out at 72%. Besides, the “median FC” value in assay [1] is given as at most 0.4. For the same compound, in assay [4], the change in susceptibility result was “enhanced susceptibility”. Besides, the susceptibility entry in assay [5] was “remained susceptible”. The “effect of I50V on susceptibility” value in assay [6] is recorded as “increased susceptibility”.
